In ChEMBL document CHEMBL1201862, “PubChem BioAssay data set” (2004):
Calls of active or inactive are those of the source.

Columns and labels:
[1] = biological target: T1, Neuropeptide Y receptor type 1 (Homo sapiens, UniProt P25929); assay: IC50 of human NPY-Y1 blockers – cell-based, dose response (AID 1277); format: functional
T1 sequence (P25929 whole entry): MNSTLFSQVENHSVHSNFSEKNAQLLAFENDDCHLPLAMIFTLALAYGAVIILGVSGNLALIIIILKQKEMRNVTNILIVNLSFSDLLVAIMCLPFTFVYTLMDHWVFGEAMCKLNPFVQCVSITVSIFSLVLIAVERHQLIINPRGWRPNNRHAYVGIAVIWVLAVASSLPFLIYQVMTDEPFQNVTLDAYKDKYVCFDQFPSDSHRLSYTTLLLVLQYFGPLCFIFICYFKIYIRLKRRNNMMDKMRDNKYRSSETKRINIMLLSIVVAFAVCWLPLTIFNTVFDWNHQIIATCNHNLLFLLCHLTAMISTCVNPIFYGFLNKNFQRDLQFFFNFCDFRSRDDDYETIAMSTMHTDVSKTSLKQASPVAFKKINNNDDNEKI

[2] = biological target: T2, Neuropeptide Y receptor type 2 (Homo sapiens, UniProt P49146); assay: IC50 for human NPY-Y2 blockade – cell-based, counter-screen for NPY-Y1 antagonist project, dose response (AID 1278); format: functional
T2 sequence (P49146 whole entry): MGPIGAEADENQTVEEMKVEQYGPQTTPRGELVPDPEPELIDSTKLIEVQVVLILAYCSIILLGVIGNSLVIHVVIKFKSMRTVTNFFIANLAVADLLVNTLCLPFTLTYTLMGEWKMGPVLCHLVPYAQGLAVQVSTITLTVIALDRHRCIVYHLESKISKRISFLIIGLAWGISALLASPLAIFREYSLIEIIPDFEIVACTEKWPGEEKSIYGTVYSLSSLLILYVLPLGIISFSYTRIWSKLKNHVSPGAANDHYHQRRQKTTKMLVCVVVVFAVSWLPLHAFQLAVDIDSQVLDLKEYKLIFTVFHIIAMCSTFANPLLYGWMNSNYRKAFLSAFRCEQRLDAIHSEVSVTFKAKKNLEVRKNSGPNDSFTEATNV

[3] = mitochondrial function rescue without frataxin homolog – Friedreich's ataxia, plus single-dose screen, dose response (AID 1465); format: functional;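 note: yeast depleted of Yfh1p frataxin homolog grown on glycerol needing respiration; WST-1 tetrazolium dye reduction as measure of cellular dehydrogenase metabolic activity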
[4] = biological target: T1, Neuropeptide Y receptor type 1; assay: Fluorescence-based counterscreen for agonists of NPY-Y2: cell-based high-throughput dose response assay for agonists of NPY-Y1.; format: functional
[5] = biological target: T2, Neuropeptide Y receptor type 2; assay: Fluorescence-based cell-based high-throughput dose response assay for agonists of NPY-Y2. [Related pubchem assays: 1703 (Screening assay (CNGC inhibitors).), 1359 (Screening assay (NPY-Y2 potentiators or agonists).), 1304 (Screening assay (NPY-Y1 potentiators or agonists).), 1710 (Screening assay (NPY-Y2 agonists).), 1791 (Summary AID.)]; format: functional
HEK293 = assay: Fluorescence-based counterscreen for potentiators or agonists of NPY-Y2: cell-based high-throughput dose response assay to identify inhibitors of cyclic nucleotide gated ion channel (CNGC) activity. In this assay, the parental HEK293 cell line transfected with a cyclic-nucleotide gated ion channel (CNGC)-based cAMP sensor is used to measure inhibition of isoproterenol-induced CNGC activity by test compound.; format: functional; details: Homo sapiens;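 note: stimulus is 1 µM isoproterenol at EC100 plus PDE inhibitor Ro 20-1724 at 25 µM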
HeLa = assay: Cytotoxicity counterscreen assay for transcriptional activators of heat shock protein 70 (Hsp70). [Related pubchem assays: 1203, 1252 ]; format: functional; details: Homo sapiens;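 note: cells exposed to compound for 16 hours before readout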
[6] = Trypanosoma cruzi growth suppression in host cells – NIH3T3 host cells, beta-gal luminescence, confirmation (AID 2044); format: functional, cell-based;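 note: intracellular parasites grown in NIH/3T3 mouse fibroblasts as host cells; luminescent beta-galactosidase reporter signal from transgenic T. cruzi replicating inside host cells; inhibitors lower the luminescence signal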
[7] = biological target: T3, Replicative DNA helicase DnaB (Mycobacterium tuberculosis, UniProt P9WMR3); assay: DnaB intein splicing inhibitors, dose response, biochemical, cell-free fluorescence (AID 449749); format: functional
T3 sequence (P9WMR3 whole entry): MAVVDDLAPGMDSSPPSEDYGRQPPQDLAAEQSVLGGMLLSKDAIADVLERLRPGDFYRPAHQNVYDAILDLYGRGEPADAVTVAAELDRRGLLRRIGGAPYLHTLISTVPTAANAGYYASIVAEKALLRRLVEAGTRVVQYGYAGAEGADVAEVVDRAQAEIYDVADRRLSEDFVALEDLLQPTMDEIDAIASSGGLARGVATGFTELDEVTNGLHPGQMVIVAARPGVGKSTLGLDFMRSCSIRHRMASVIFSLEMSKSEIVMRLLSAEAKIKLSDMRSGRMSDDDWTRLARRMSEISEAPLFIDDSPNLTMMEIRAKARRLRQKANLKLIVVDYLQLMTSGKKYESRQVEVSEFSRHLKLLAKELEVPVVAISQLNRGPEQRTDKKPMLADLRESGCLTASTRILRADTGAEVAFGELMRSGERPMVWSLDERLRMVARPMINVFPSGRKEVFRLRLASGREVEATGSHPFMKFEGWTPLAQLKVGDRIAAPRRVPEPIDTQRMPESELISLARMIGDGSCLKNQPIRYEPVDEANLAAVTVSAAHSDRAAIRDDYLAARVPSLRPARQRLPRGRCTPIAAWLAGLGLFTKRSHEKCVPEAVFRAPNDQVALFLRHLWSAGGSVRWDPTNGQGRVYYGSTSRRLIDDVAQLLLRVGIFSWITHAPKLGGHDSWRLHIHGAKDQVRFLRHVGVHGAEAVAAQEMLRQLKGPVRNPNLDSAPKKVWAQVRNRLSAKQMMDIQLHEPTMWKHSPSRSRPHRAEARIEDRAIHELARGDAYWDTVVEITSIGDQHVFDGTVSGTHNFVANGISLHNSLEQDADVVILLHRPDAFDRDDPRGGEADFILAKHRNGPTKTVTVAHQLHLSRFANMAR

[8] = Luminescent dose response cell-based high throughput screening assay for inhibitors of the Janus kinase 2 mutant JAK2V617F. [Related pubchem assays: 1446 (Primary screen.), 1521 (Confirmation assay.), 1486 (Counter screen.)]; format: functional
[9] = NIH-3T3 fibroblast cytotoxicity, dose response, cytotoxicity control, cell-based, fluorescence, Alamar Blue, secondary assay (AID 2327); format: functional;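 note: NIH-3T3 mouse fibroblasts cultured with fluconazole at 8 µg/mL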
INS1 = assay: INS-1E survival protection against cytokine death – cell-based, luminescence, retest, dose response (AID 449756); format: functional; details: Rattus norvegicus;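 note: cell death triggered by IL-1 beta plus TNF-alpha plus IFN-gamma mixture; protective hits raise ATP signal compared with cytokine alone wells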
[10] = NIH3T3 cell viability loss – ATP luminescence, mouse fibroblasts, counter-screen, dose response (AID 2010); format: functional, cell-based;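 note: cells exposed to compound for about 90 hours before reading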
Protein RecA = biological target: T4, Protein RecA (Mycobacterium tuberculosis, UniProt P9WHJ3); assay: Fluorescence Cell-Free Homogeneous Dose Retest to Identify Inhibitors of RecA-Intein Splicing Activity. [Related pubchem assays (depositor defined):AID2097, AID2223, AID489010, AID492950]; format: functional
T4 sequence (P9WHJ3 whole entry): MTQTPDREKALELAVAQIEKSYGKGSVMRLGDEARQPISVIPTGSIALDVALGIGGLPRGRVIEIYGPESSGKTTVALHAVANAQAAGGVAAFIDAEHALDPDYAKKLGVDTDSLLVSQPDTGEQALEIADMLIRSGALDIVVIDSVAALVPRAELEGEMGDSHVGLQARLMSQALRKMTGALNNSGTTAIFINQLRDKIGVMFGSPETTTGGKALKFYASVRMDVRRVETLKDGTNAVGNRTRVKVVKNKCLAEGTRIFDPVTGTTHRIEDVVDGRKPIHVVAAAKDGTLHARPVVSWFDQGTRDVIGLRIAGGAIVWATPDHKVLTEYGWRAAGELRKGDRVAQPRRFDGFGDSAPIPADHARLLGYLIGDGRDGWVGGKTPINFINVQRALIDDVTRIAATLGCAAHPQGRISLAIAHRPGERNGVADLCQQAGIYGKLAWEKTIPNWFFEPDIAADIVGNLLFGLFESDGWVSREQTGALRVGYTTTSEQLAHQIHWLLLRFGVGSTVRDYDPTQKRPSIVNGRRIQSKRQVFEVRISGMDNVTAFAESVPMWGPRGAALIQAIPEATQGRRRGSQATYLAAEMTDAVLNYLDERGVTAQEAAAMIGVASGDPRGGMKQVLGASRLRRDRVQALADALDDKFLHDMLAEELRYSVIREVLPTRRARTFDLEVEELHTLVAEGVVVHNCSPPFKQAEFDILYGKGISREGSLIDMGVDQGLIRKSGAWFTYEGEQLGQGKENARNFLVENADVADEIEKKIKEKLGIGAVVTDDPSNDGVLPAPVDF

[11] = biological target: Sphingosine 1-phosphate receptor 2 (Homo sapiens, UniProt O95136); assay: Dose Response Cell Based Assay for Antagonists of the S1P2 Receptor. [Related pubchem assays: 856, 736 ]; format: functional
Sequence of Sphingosine 1-phosphate receptor 2 (O95136 whole entry): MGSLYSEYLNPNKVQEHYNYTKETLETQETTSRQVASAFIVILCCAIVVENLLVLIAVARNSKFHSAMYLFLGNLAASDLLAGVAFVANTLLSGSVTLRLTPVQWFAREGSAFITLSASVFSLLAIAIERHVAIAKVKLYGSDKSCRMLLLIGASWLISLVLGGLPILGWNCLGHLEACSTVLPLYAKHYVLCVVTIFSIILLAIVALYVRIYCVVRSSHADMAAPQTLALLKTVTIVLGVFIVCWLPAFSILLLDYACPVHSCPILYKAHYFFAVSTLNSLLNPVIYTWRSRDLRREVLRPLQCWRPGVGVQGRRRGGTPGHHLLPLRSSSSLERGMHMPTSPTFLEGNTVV

[12] = fluconazole-exposed Candida albicans growth modulators – fluorescence, retest, confirmation (AID 2467); format: functional, cell-based
[13] = DRD fibroblast viability loss – cell-based, non-viral oncogenic, luminescence, dose response (AID 1934); format: functional; details: Homo sapiens
BJ [14] = assay: cells; format: functional, cell-based; details: Homo sapiens
BJ [15] = assay: BJ-TERT fibroblast viability loss – cell-based, RAS-independent, luminescence, dose response (AID 1933); format: functional; details: Homo sapiens
BJ [16] = assay: BJ-TERT-LT-ST fibroblast viability loss – cell-based, RAS-independent, luminescence, dose response (AID 1935); format: functional; details: Homo sapiens;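 note: BJ fibroblasts immortalized with TERT plus LT and ST oncogenes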
[17] = Luminescence-based counterscreen assay for KLF5 inhibitors: dose response cell-based high throughput screening assay to identify cytotoxic compounds using the IEC-6 intestinal epithelial cell line. [Related pubchem assays: 1700 (Primary screen.), 1834 (Confirmation screen.), 1858 (Summary AID.), 1905 (Counterscreen.)]; format: functional
[18] = biological target: Dual specificity tyrosine-phosphorylation-regulated kinase 1A (Rattus norvegicus, UniProt Q63470); format: biochemical, Homo sapiens
[19] = biological target: T5, Small ubiquitin-related modifier 1 (Homo sapiens, UniProt P63165); assay: SUMO1 protein-protein binding blockers, potency – biochemical, FRET, dose response (AID 624383); format: functional; details: read-out: IC50_Mean
T5 sequence (P63165 whole entry): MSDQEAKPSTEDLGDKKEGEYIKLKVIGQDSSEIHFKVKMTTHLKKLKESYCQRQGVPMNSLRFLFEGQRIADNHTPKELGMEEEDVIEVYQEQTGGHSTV

[20] = biological target: Induced myeloid leukemia cell differentiation protein Mcl-1 (Homo sapiens, UniProt Q07820); assay: blockers of MCL1 binding to BIM peptide – biochemical, fluorescence polarization, BIM-BH3 peptide, 1536-well, dose response (AID 2217)
Sequence of Induced myeloid leukemia cell differentiation protein Mcl-1 (Q07820 whole entry): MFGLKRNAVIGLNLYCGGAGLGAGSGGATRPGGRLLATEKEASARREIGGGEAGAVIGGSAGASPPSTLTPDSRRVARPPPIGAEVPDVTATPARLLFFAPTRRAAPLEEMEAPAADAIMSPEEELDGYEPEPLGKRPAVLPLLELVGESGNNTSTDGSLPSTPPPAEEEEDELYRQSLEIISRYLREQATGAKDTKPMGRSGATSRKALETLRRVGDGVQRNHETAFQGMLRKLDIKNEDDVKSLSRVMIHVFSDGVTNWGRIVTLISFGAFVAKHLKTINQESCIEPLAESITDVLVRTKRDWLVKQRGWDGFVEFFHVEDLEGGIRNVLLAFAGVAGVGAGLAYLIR

[21] = biological target: Dual specificity protein phosphatase 3 (Homo sapiens, UniProt P51452); assay: VHR phosphatase inhibition, dose response, selectivity assay for STEP inhibitor project, biochemical (AID 602374); format: functional; details: read-out: IC50_Mean
Sequence of Dual specificity protein phosphatase 3 (P51452 whole entry): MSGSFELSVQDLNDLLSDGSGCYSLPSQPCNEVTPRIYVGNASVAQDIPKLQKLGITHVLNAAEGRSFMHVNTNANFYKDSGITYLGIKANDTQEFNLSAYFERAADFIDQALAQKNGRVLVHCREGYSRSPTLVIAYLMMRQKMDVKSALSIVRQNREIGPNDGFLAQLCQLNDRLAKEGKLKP

[22] = biological target: Tyrosine-protein phosphatase non-receptor type 11 (Homo sapiens, UniProt Q06124); assay: PTPN11 enzyme inhibitors – biochemical, selectivity assay for STEP inhibitor project, dose response (AID 602367); format: functional; details: read-out: IC50_Mean
Sequence of Tyrosine-protein phosphatase non-receptor type 11 (Q06124 whole entry): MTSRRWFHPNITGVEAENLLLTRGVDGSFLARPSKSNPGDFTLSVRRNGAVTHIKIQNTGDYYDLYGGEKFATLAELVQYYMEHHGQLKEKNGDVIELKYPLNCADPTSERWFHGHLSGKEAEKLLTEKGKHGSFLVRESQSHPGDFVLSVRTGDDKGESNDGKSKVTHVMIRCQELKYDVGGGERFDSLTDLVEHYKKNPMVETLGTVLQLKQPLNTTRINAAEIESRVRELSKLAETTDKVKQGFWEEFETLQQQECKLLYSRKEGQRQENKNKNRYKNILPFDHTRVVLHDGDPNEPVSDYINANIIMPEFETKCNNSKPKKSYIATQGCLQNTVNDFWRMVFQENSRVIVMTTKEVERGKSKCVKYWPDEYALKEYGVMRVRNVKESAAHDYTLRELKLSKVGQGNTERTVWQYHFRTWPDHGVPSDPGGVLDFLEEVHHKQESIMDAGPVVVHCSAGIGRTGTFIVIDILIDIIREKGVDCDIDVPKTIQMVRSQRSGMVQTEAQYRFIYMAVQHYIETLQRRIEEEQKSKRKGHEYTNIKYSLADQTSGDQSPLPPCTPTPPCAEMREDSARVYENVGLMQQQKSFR

[23] = biological target: Tyrosine-protein phosphatase non-receptor type 5 (Homo sapiens, UniProt P54829); assay: PTPN5 enzyme inhibition – biochemical, fluorescence intensity, uHTS hits, confirmation (AID 602372); format: functional; details: read-out: IC50_Mean
Sequence of Tyrosine-protein phosphatase non-receptor type 5 (P54829 whole entry): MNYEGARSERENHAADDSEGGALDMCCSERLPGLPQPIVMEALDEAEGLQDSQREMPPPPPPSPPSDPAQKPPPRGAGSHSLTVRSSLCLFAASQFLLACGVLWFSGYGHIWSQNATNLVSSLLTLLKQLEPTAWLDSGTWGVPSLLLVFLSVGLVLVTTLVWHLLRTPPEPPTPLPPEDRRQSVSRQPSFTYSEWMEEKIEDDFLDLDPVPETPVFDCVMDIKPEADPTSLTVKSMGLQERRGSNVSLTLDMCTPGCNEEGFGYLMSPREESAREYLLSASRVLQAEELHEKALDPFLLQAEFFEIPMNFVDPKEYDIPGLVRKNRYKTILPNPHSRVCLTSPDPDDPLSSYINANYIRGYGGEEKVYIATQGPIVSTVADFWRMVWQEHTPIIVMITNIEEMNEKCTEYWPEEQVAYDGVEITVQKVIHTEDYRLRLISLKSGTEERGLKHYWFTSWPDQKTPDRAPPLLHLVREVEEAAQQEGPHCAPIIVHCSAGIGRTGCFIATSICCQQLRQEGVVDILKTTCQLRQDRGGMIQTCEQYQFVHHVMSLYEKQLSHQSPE

[24] = biological target: T5, Small ubiquitin-related modifier 1; assay: SUMO1 protein interaction blockers, potency – biochemical, fluorescence polarization, uHTS hits, dose response (AID 624382); format: functional; details: read-out: IC50_Mean
Bcl-2-like protein 1 = Bcl-2-like protein 1 (Homo sapiens, UniProt Q07817); assay: blockers of BCLXL peptide binding – biochemical, fluorescence polarization, 1536-well, selectivity assay for MCL1 inhibitor project, dose response (AID 2218)
Sequence of Bcl-2-like protein 1 (Q07817 whole entry): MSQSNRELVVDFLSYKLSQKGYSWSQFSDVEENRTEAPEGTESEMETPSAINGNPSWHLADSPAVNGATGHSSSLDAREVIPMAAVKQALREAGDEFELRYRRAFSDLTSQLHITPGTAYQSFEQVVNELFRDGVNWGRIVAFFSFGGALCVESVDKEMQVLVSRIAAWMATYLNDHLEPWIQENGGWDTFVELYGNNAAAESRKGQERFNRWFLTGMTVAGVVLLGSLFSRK

CCc1cccc(CC)c1NC(=O)C(NS(=O)(=O)c1cccs1)c1ccccc1 (centres undefined)
IC50 [1]: > 35 µM (not active)
IC50 [2]: > 35 µM (not active)

COc1ccc2ccccc2c1C(=O)/C=C\c1ccoc1
EC50 [3]: > 100 µM (active)

COc1ccc(N2CCN(CC(O)COc3ccccc3[N+](=O)[O-])CC2)cc1 (centres undefined)
EC50 [4]: 9.49 µM (active)
EC50 [5]: 12.3 µM (not active)
EC50 (HEK293): 2.43 µM (active)

O=C(OCn1ncc(Cl)c(Cl)c1=O)c1ccc(F)cc1
CC50 (HeLa): 21.7 µM (not active)
EC50 [6]: 1.16 µM (active)
AC50 [7]: 5.07 µM (active)
IC50 [8]: 0.351 µM (active)
EC50 [9]: 1.85 µM (inconclusive)
AC50 (INS1): 7.34 µM (active)
EC50 [10]: 1.04 µM (active)
EC50 (Protein RecA): 0.938 µM (active)
IC50 [11]: 3.76 µM (active)
EC50 [12]: > 38 µM (not active)

COc1ccc2[nH]c(C(=O)N/N=C/c3ccc(OC)c(O)c3)cc2c1
EC50 [13]: 41.7 µM (inconclusive)
EC50 (BJ [14]): 59.5 µM (inconclusive)
EC50 (BJ [15]): 1.89 µM (active)
EC50 (BJ [16]): 50.5 µM (inconclusive)
IC50 [17]: 20.4 µM (not active)
AC50 [18]: 1.04 µM (active)

O=C(N/N=C/c1ccncc1)c1cccc(S(=O)(=O)Nc2ccc(Cl)cc2)c1
IC50 [19]: 10.3 µM (active)
IC50 [20]: 11.3 µM (not active)
IC50 [21]: 2.87 µM (active)
IC50 [22]: 2.6 µM (active)
IC50 [23]: 14.7 µM (active)
IC50 [24]: > 66.6 µM (inactive)
IC50 (Bcl-2-like protein 1): > 109 µM (not active)
